From patent US5663157A, “22-en-25-oxa derivatives in the vitamin D series, process for their production, pharmaceutical preparations containing these derivatives as well as their use as pharmaceutical agents” (Schering Aktiengesellschaft, priority 1992, dated 1997)

Experiments:
HL 60 cells = assay: HL 60 differentiation induction (NBT reduction to formazan); assay type: cell-based; conditions: Homo sapiens, 96 hours incubation, formazan at 650 nm, read-out: ED50 (differentiation induction of HL 60 cells to macrophages)
Experimental: HL 60 cells are cultivated in tissue-culture medium (RPMI-10% fetal calf serum) at 37° C. in an atmosphere of 5% CO2 in air.
For substance testing, the cells are centrifuged off and 2.8 ×10^5 cells/ml in phenol red-free tissue-culture medium are taken up. The test substances are dissolved in ethanol and diluted with tissue-culture medium without phenol red to the desired concentration. The dilution stages are mixed with the cell suspension in a ratio of 1:10 and pipetted in 100 μl each of this cell suspension mixed with substance in an indentation of a 96-hole plate. For control, a cell suspension is analogously mixed with the solvent.
After incubation over 96 hours at 37° C. in 5% CO2 in air, 100 μl of an NBT-TPA solution (nitro blue tetrazolium (NBT), final concentration in the batch of 1 mg/ml, tetradecanoyl phorbol myristate-13-acetate (TPA), final concentration in the batch of 2 ×10^-7 mol/l) is pipetted in the cell suspension in every indentation of the 96-hole plate.
By incubation over 2 hours at 37° C. and 5% CO2 in air, NBT is reduced to insoluble formazan because of the intracellular oxygen radical release, stimulated by TPA, in the cells differentiated to macrophages.
For completion of the reaction, the indentations of the 96-hole plate are suctioned off, and the adhering cells are fixed by adding methanol and dried after fixing.
To dissolve the formed intracellular formazan crystals, 100 μl of potassium hydroxide (2 val/l) and 100 μl of dimethyl sulfoxide are pipetted in each indentation and ultrasonically treated for 1 minute. The concentration of formazan is measured by spectrophotometry at 650 nm.
The concentration of formed formazan is regarded as a measurement for the differentiation induction of the HL 60 cells to macrophages.

[1] = hypercalcemic and hypercalcinuric activity in vivo; parameters: species or system Wistar rats; conditions: for calcium excretion in second collecting phase (16-22 hours), result in words: 200 μg/kg s.c. versus calcitriol 2 μg/kg and solvent control; for serum calcium concentration: 22 hours after administration, solvent control 3.0 mmol/l; for calcium excretion in urine, second collecting phase (16-22 hours): after oral calcium, solvent control 1.5 μmol/animal; for calcium excretion in urine, first collecting phase (0-16 hours): solvent control 12.2 μmol/animal; for hypercalcemia induction: 200 μg/kg subcutaneous; for hypercalcemia induction / in vivo potency reduced by factor in comparison to calcitriol: male Wistar rats; for in vivo potency reduced by factor in comparison to calcitriol: calcium metabolism, subcutaneous
Experimental: To assess the corresponding activities of the substances according to the invention, the hypercalcemic and hypercalcinuric activity in vivo is determined. […] Urine is collected in the period of 0-16 hours after substance administration. Then, the animals orally receive 1 μmol of calcium in 6.5% klucel (hydroxypropyl cellulose) and again urine is collected for the period of 16-22 hours after substance administration. The urine volume of each fraction is measured to measure the absolute calcium excretion. After 22 hours, the animals are killed by decapitation and the blood is collected. The calcium concentration in serum and urine is determined by flame photometry.

| SMILES | EC50 (HL 60 cells) | calcium excretion in second collecting phase (16-22 hours), result in words [1] | serum calcium concentration ([1]; 200 μg/kg s.c.) | calcium excretion in urine, second collecting phase (16-22 hours) ([1]; 200 μg/kg s.c.) | calcium excretion in urine, first collecting phase (0-16 hours) ([1]; 200 μg/kg s.c.) | hypercalcemia induction [1] | in vivo potency reduced by factor in comparison to calcitriol [1] | calcium excretion in urine, second collecting phase (16-22 hours) ([1]; calcitriol 2 μg/kg s.c.) | calcium excretion in urine, first collecting phase (0-16 hours) ([1]; calcitriol 2 μg/kg s.c.) |
| --- | --- | --- | --- | --- | --- | --- | --- | --- | --- |
| C=C1/C(=C\C=C2/CCC[C@]3(C)[C@@H]([C@H](C)/C=C/COCC(O)(CC)CC)CC[C@@H]23)C[C@@H](O)C[C@@H]1O [compound 17, (5Z,7E,22E)-(1S,3R)-24-(2-Ethyl-2-hydroxybutoxy)-9,10-secochola-5,7,10(19),22-tetraene-1,3-diol] | 1 nM | not significantly different to the standard calcitriol | 3.4 mmol/L | 47.0 μmol/animal | 61.7 μmol/animal | slight hypercalcemia | ~100 |  |  |
| C=C1/C(=C\C=C2/CCC[C@]3(C)[C@@H]([C@H](C)CCCC(C)(C)O)CC[C@@H]23)C[C@@H](O)C[C@@H]1O [calcitriol, 1α,25-Dihydroxycholecalciferol, reference compound] | 1.6 nM |  |  |  |  |  |  | 25.1 μmol/animal | 40.6 μmol/animal |
| C=C1/C(=C\C=C2/CCC[C@]3(C)[C@@H]([C@H](C)/C=C/COCC(C)(C)O)CC[C@@H]23)C[C@@H](O)C[C@@H]1O [compound 16, (5Z,7E,22E)-(1S,3R)-24-(2-Hydroxy-2-methylpropoxy)-9,10-secochola-5,7,10(19),22-tetraene-1,3-diol] | 3.2 nM | not increased relative to the solvent control | 3.0 mmol/L | 3.6 μmol/animal | 62.4 μmol/animal | no hypercalcemia | > 100 |  |  |
